This experiment deals with T1, 17β-HSD10 (Homo sapiens, UniProt Q99714).
T1 construct: Histev (histidine tag with TEV site) (N, cleaved yes); made in house; host or cells: E. coli BL21-CodonPlus
T1 sequence (Q99714 1-261): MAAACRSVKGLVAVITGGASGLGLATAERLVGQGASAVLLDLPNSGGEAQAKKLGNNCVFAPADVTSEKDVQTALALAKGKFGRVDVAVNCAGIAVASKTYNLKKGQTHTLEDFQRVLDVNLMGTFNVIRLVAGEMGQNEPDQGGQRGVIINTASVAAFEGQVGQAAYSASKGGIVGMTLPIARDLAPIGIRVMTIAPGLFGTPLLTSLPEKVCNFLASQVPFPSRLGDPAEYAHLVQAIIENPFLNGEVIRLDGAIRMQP
Put plainly: 17β-HSD10 (ABAD) enzyme inhibition assay, NADH oxidation read at 340 nm (primary screen and dose response). As to conditions: for EC50 / Max. Effect (%) / Hill Slope / Max. Fit / Min. Fit: recombinant 17βHSD10 enzyme assay; for Hill Slope / Max. Fit / Min. Fit: curve fit; for ABAD plC50: primary screening, resynthesized HTS hit compounds. The class given is biochemical. As for the experimental part:
Cell pellets of E. coli BL21-CodonPlus cells containing Histev-17β-HSD10 protein were re-suspended for 30 min, 4° C., in lysis buffer (20 mM NaH2PO4, 30 mM imidazole, 500 mM NaCl, 10% (v/v) glycerol, pH 7.5) with the addition of complete ethylenediaminetetraacetic acid (EDTA)-free protease inhibitor tablets (Roche), lysozyme (1 mg/mL), deoxyribonuclease (DNase) (20 μg/mL) and Triton X-100 (0.1% (v/v)). Cells were lysed by passage through a cell disruptor at 30 kPSI (Constant Systems Ltd) and the lysate was cleared by centrifugation (Sorvall Evolution RC, rotor S5-34 55-34 angle, 20500 rpm, 30 min, 4° C.). Cleared lysate was filtered (0.45 μm membrane; Whatman) then applied to a Ni-nitrilotriacetic acid (NTA) (GE Healthcare) column pre-washed with lysis buffer and protein eluted with 300 mM imidazole buffer (20 mM NaH2PO4, 300 mM imidazole, 500 mM NaCl, 10% (v/v) glycerol, pH 7.5). […] Protein digestion and dialysis was carried out at 4° C. for 16 h.
Complete digestion was firstly checked by sodium dodecyl sulfate-polyacrylamide gel electrophoresis (SDS-PAGE), then fully digested protein was passed over a second Ni-column and the flow-through, containing 17β-HSD10 protein, was concentrated using a Vivaspin column (10 kDa MWCO, GE Healthcare) to ˜7 mL before final purification using gel filtration to remove imidazole (Hi-Load 16/60 Superdex 75 prep grade column, GE Healthcare, flow rate 1.5 mL/min). Protein was eluted in gel filtration buffer (10 mM trisaminomethane (Tris-HCl), 150 mM NaCl, 10% glycerol, pH 7.5) and concentrated (Vivaspin column (10 kDa molecular weight cut off (MWCO), GE Healthcare)) to 10 mg/mL. Aliquots (10 μL) were taken and flash frozen in liquid nitrogen before final storage at −80° C.
The assay buffer used contains: 10 mM Tris. HCl (pH 7.4), 150 mM NaCl, 1 mM DTT, 0.005% Tween (polysorbate 20) and 0.01% bovine serum albumin (BSA). As indicated for some experiments the assay buffer was supplemented with 100 units/ml bovine liver catalase. All experiments were conducted in clear bottom 384-well or 1536-well low volume microplates (Corning) with a final assay volume of 20 μL and the reaction progress was monitored by oxidation of NADH as determined by reduction in absorbance at 340 nm read on the EnVision plate reader (PerkinElmer).
For primary screening an endpoint assay format was adopted in which an Echo acoustic liquid dispenser (Labcyte) was used to transfer 20 nL of either reference standard, dimethylsulfoxide (DMSO) control ([…] final assay concentration (FAC)) or test compounds (10 μM FAC) to the assay plate. 10 μL of 17β-HSD10 enzyme in assay buffer (2.5 nM, FAC) was then added to the plates using the Preddator liquid handling robot (Redd and Whyte) and plates were incubated at room temperature for 15 minutes. 10 μL of substrate mixture (100 μM acetoacetyl-CoA and 100 μM NADH, FAC) was added with the Preddator. To start the reaction and the plates were left to incubate for 35 minutes at room temperature before the absorbance at 340 nm was read on the EnVision plate reader (PerkinElmer). For kinetic assay format and dose response follow up experiments the same protocol was adopted but the absorbance at 340 nm was monitored constantly for 45 minutes from immediately after the reaction was started.

As a reminder, the EC50 is the concentration at which the effect is half-maximal. On to `O=C(c1sccc1Cl)N1CCC[C@H]1c1ccccc1-c1cccc(O)c1F` (single isomer, unassigned) [ESC1002840], for which the EC50 was 170 nM, the “Max. Effect (%)” value turned out to be 98%, the “Hill Slope” value is reported as 1.1 and the “Max. Fit” value was found to be 97. Besides, the “Min. Fit” value is −4.

As for `O=C(c1sccc1Cl)N1CCC[C@H]1c1ccccc1-c1cccc(O)c1F` (single isomer, unassigned) [ESC1002841], the EC50 was greater than 20000 nM and the “Max. Effect (%)” value was found to be 27%.

For the molecule `O=C(c1sccc1Cl)N1CCC[C@H]1c1ccccc1-c1cc(O)ccc1F` (single isomer, unassigned) [ESC1002843], the EC50 is 10700 nM, the “Max. Effect (%)” value was determined as 70%, the “Hill Slope” value is listed as 1.1 and the “Max. Fit” value is reported as 100. Moreover, the “Min. Fit” value is listed as −1.

Turning to `CCCn1c(C(N)=O)cc2cc(-c3cn[nH]c3)ccc21` [ESC1002019], the EC50 was 3980 nM, the “Max. Effect (%)” value is recorded as 85%, the “Hill Slope” value turned out to be 1.3 and the “Max. Fit” value is listed as 93. In addition, the “Min. Fit” value is reported as 2.

With `COc1ccc(-c2ccc(-c3cn[nH]c3)s2)c(OC)c1OC` [ESC1002024, 4-[5-(2,3,4-trimethoxyphenyl)-2-thienyl]-1H-pyrazole], the EC50 was 3980 nM, the “Max. Effect (%)” value is given as 89%, the “Hill Slope” value turned out to be 1.2 and the “Max. Fit” value stood at 101. Moreover, the “Min. Fit” value is 2.

Consider `CC(C)CN(CC(C)C)c1cccc(N(C)Cc2cnc[nH]2)c1` [ESC1002025], for which the EC50 is greater than 20000 nM and the “Max. Effect (%)” value is on record as 15%.

Take `Cc1ccc(C(=O)N(CC(C)C)c2cccc(N(C)Cc3cnc[nH]3)c2)cc1` [ESC1002032, N-[3-[1H-imidazol-5-ylmethyl(methyl)amino]phenyl]-N-isobutyl-4-methyl-benzamide]: the “ABAD plC50” value is 6.6, the EC50 is 251 nM, the “Max. Effect (%)” value is recorded as 99% and the “Hill Slope” value was found to be 0.9. For the same molecule, the “Max. Fit” value was 99 and the “Min. Fit” value amounted to 0.

In the case of `CC(C)CN(C(=O)c1ccncc1)c1cccc(N(C)Cc2cnc[nH]2)c1` [ESC1002034, N-[3-[1H-imidazol-5-ylmethyl(methyl)amino]phenyl]-N-isobutyl-pyridine-4-carboxamide], the “ABAD plC50” value is 5.8, the EC50 was 1580 nM, the “Max. Effect (%)” value was 92% and the “Hill Slope” value was found to be 0.8. The “Max. Fit” value came out at 106 and the “Min. Fit” value is recorded as −3.

In the case of `COc1cccc(C(=O)N(CC(C)C)c2cccc(N(C)Cc3cnc[nH]3)c2)c1` [ESC1002038, N-[3-[1H-imidazol-5-ylmethyl(methyl)amino]phenyl]-N-isobutyl-3-methoxy-benzamide], the “ABAD plC50” value is 5.7, the EC50 is 2000 nM, the “Max. Effect (%)” value is recorded as 92% and the “Hill Slope” value is 0.8. Moreover, the “Max. Fit” value was 105 and the “Min. Fit” value was −2.

Take `CC(C)CN(C(=O)c1ccc(Cl)cc1F)c1cccc(N(C)Cc2cnc[nH]2)c1` [ESC1002042, 4-chloro-2-fluoro-N-[3-[1H-imidazol-5-ylmethyl(methyl)amino]phenyl]-N-isobutyl-benzamide]: the “ABAD plC50” value was 6.5, the EC50 was 316 nM, the “Max. Effect (%)” value is on record as 98% and the “Hill Slope” value was 0.8. Further, the “Max. Fit” value is 101 and the “Min. Fit” value was −6.

In the case of `Cc1ccc(C(=O)Nc2cccc(N(C)Cc3cnc[nH]3)c2)cc1` [ESC1002054, N-[3-[1H-imidazol-5-ylmethyl(methyl)amino]phenyl]-4-methyl-benzamide], the EC50 was greater than 20000 nM and the “Max. Effect (%)” value was determined as 3%.

For the molecule `CN(Cc1cncn1C(=O)OC(C)(C)C)c1cccc(NC(=O)c2ccccc2F)c1` [ESC1002055], the EC50 was greater than 20000 nM and the “Max. Effect (%)” value was 1%.

In the case of `CN(Cc1cnc[nH]1)c1cccc(NC(=O)c2ccccc2F)c1` [ESC1002056, 2-fluoro-N-[3-[1H-imidazol-5-ylmethyl(methyl)amino]phenyl]benzamide], the 50% effective concentration (EC50) was greater than 20000 nM and the “Max. Effect (%)” value was 4%.

Consider `CC(C)N(C(=O)c1ccccc1F)c1cccc(N(C)Cc2cnc[nH]2)c1` [ESC1002078, 2-fluoro-N-[3-[1H-imidazol-5-ylmethyl(methyl)amino]phenyl]-N-isopropyl-benzamide], for which the EC50 is 631 nM, the “Max. Effect (%)” value stood at 97%, the “Hill Slope” value was 1 and the “Max. Fit” value turned out to be 101. Further, the “Min. Fit” value was −1.

With `Cc1ccc(C(=O)N(c2cccc(N(C)Cc3cnc[nH]3)c2)C(C)C)cc1` [ESC1002080, N-[3-[1H-imidazol-5-ylmethyl(methyl)amino]phenyl]-N-isopropyl-4-methyl-benzamide], the EC50 was 1000 nM, the “Max. Effect (%)” value is given as 96%, the “Hill Slope” value is 0.9 and the “Max. Fit” value is on record as 102. The “Min. Fit” value is reported as 0.

As to `O=C(c1ccccc1F)N1CCCc2ccc(NCc3cnc[nH]3)cc21` [ESC1002081, (2-fluorophenyl)-[7-(1H-imidazol-5-ylmethylamino)-3,4-dihydro-2H-quinolin-1-yl]methanone], the “17β-HSD10 / ABAD activity in words (SAR discussion)” value is reported as “potency was abolished”, the EC50 is greater than 20000 nM and the “Max. Effect (%)” value is given as 0%.

For `CN(Cc1cnc[nH]1)c1ccc2c(c1)N(C(=O)c1ccccc1F)CCC2` [ESC1002083, (2-fluorophenyl)-[7-[1H-imidazol-5-ylmethyl(methyl)amino]-3,4-dihydro-2H-quinolin-1-yl]methanone], the EC50 is greater than 20000 nM and the “Max. Effect (%)” value came out at 2%.

On to `Cc1ccc(C(=O)N(CC2CC2)c2cccc(N(C)Cc3c[nH]cn3)c2)cc1` [ESC1002399, N-(cyclopropylmethyl)-N-[3-[1H-imidazol-4-ylmethyl(methyl)amino]phenyl]-4-methyl-benzamide], for which the EC50 is 1000 nM, the “Max. Effect (%)” value was determined as 95%, the “Hill Slope” value turned out to be 1.1 and the “Max. Fit” value is given as 99. Moreover, the “Min. Fit” value is 2.

As for `Cc1ccsc1C(=O)N1CCC[C@@H]1c1ccccc1-c1ccc(C2CC2)cc1` [ESC1002422], the EC50 is 562 nM, the “Max. Effect (%)” value is 93%, the “Hill Slope” value came out at 1.6 and the “Max. Fit” value is 90. For the same molecule, the “Min. Fit” value is given as 1.

As to `Cc1ccsc1C(=O)N1CCC[C@@H]1c1ccccc1-c1ccc(F)cc1` [ESC1002423], the EC50 was 380 nM, the “Max. Effect (%)” value came to 96%, the “Hill Slope” value is recorded as 2.3 and the “Max. Fit” value was 93. Also, the “Min. Fit” value stood at 9.

For the molecule `Cc1ccsc1C(=O)N1CCC[C@@H]1c1ccccc1-c1cnn(C)c1` [ESC1002424], the EC50 was 933 nM, the “Max. Effect (%)” value was 96%, the “Hill Slope” value is 1.3 and the “Max. Fit” value is listed as 96. Also, the “Min. Fit” value came to 2.

Turning to `COc1cccc(-c2ccccc2[C@H]2CCCN2C(=O)c2cccs2)c1` [ESC1002425], the EC50 was 479 nM, the “Max. Effect (%)” value is 96%, the “Hill Slope” value was determined as 1.1 and the “Max. Fit” value was found to be 95. Moreover, the “Min. Fit” value is listed as −8.
